Laboratory results from patent publication US7655253B2, “Navel orangeworm pheromone composition” (Bedoukian Research, Inc., priority 2004, dated 2010).

Key:
[1] = tested on: male moth antennae (navel orangeworm); assay: GC-EAD using male navel orangeworm antennae as sensing element; parameters: species or system Amyelois transitella; conditions: for EAD activity of natural constituent: peaks in female pheromone gland extract or its fractions; for EAD activity of synthetic or authentic compound: synthetic standard
Description: General. Gas chromatography-mass spectrometry (GC-MS), described in Examples 1-6, was obtained with a 5973 Network Mass Selective Detector linked to a 6890 Network GC System (Agilent Technologies, Palo Alto, Calif.) operated either in the electron impact (EI) or chemical ionization (CI) mode. Chromatographic resolution was done on an HP-5MS column (30 m×0.25 mm; 0.25 μm; Agilent) that was operated at 70° C. for 1 min, increased to 250° C. at a rate of 10° C./min and held at this temperature for 10 min. Vapor phase infrared spectroscopy was carried out on a Win GC/IR Pro (Varian Inc., formerly Digilab, Randolph, Mass.) with a GC/IR interface and a Scimitar FTS 2000 linked to a 6890 Network GC System (Agilent). Separation was done on a HP-5 column (30 m×0.32 mm; 0.25 μm; Agilent) operated at 100° C. for 1 min, increased to 250° C. at a rate of 20° C./min and held at this temperature for 5 min; the transfer line and light pipe were operated at 250° C. Gas chromatography with electroantennographic detection (GC-EAD) was done with two different systems: HP 5890 and HP 6890 (Agilent) both having Syntech's GC-EAD transfer lines and temperature control units (Hilversum, The Netherlands). In both systems, the effluent from the capillary column was split into EAD and flame ionization detector (FID) in 3:1 ratios. Male antennae were placed in EAG probes (Syntech) and held in place with Spectra 360 electrode gel (Parker Laboratories, Orange, N.J.). These probes were connected to AM-01 amplifiers (Syntech). The analog signals were fed into A/D 35900E interfaces (Agilent) and acquired simultaneously with FID signal on an Agilent Chemstation. Chromatographic separations were done either with HP-5MS column operated as in GC-MS or with HP-INNOWAX column (30 m×0.32 mm; 0.25 μm; Agilent) operated at 70° C. for 1 min, increased to 250° C. at a rate of 10° C./min and held at this temperature for 5 min.
Gas chromatography coupled with an electroantennographic detector (GC-EAD) using male moth antennae as the sensing element was used to determine the active constituents in these SSR-active fractions (3% and hexane). […] The peaks were numbered in the order of their retention times (tR) in a non-polar column (1: tR, 17.30 min; 2: 18.44 min; 3: 18.96 min; 4: 19.08 min; 5: 20.9 min; 6: 23.8 min). The retention times of these EAD-active peaks in a polar column (HP-INNOWAX) were: 16.59, 17.37, 18.32, and 18.72 min (3% fraction) and 18.52 and 20.22 min (hexane fraction).
Pheromone glands were individually dissected out of >2,000 virgin female NOW, and the glands were extracted in −250 microliters of pentane in composite batches of −250-300 glands per extract. The extracts were screened by GC-EAD analysis to locate the compounds which elicited responses from male antennae (i.e., potential pheromone compounds). The extracts were then concentrated to ˜10-20 microliters, and aliquots were analyzed on several GC columns with different polarity, by coupled GC-mass spectrometry, and by coupled GC-Fourier transform infrared spectrometry. A parallel set of studies was conducted with composite pheromone gland extracts prepared from Pyralis females. A subset of the extracts were also combined and fractionated by liquid chromatography, to provide samples for wind tunnel tests.

[2] = tested on: antennae of male meal moth; assay: GC-EAD using male meal moth antennae; parameters: species or system Pyralis farinalis
Description: General. Gas chromatography-mass spectrometry (GC-MS), described in Examples 1-6, was obtained with a 5973 Network Mass Selective Detector linked to a 6890 Network GC System (Agilent Technologies, Palo Alto, Calif.) operated either in the electron impact (EI) or chemical ionization (CI) mode. Chromatographic resolution was done on an HP-5MS column (30 m×0.25 mm; 0.25 μm; Agilent) that was operated at 70° C. for 1 min, increased to 250° C. at a rate of 10° C./min and held at this temperature for 10 min. Vapor phase infrared spectroscopy was carried out on a Win GC/IR Pro (Varian Inc., formerly Digilab, Randolph, Mass.) with a GC/IR interface and a Scimitar FTS 2000 linked to a 6890 Network GC System (Agilent). Separation was done on a HP-5 column (30 m×0.32 mm; 0.25 μm; Agilent) operated at 100° C. for 1 min, increased to 250° C. at a rate of 20° C./min and held at this temperature for 5 min; the transfer line and light pipe were operated at 250° C. […]
Pheromone glands were individually dissected out of >2,000 virgin female NOW, and the glands were extracted in −250 microliters of pentane in composite batches of −250-300 glands per extract. […] The extracts were then concentrated to ˜10-20 microliters, and aliquots were analyzed on several GC columns with different polarity, by coupled GC-mass spectrometry, and by coupled GC-Fourier transform infrared spectrometry. […]

meal moth = assay: Field trap tests, UC Davis, meal moth captures; assay type: in vivo, Pyralis farinalis; conditions: for catches of meal moth in traps baited with virgin female navel orangeworm plus added compound: synthetic sample 0.5 mg per device added
Description: (§1) Experimental. Tests were conducted in almond and walnut plot fields in the UC Davis campus. Pheromone samples (0.5 mg) were formulated in rubber septa or in 12 mm diameter, 3 mm thick discs (made of ES fiber, Chisso Co. Ltd, Tokyo, Japan) and loaded into Pherocon 1C traps (Trece Inc., Salinas, Calif.). Three or five 1 to 3-day old virgin females were placed in fiberglass screen cages (Curtis, C. E. and Clark, J. D., J Econ Entomol 77:1057-1061 (1984) Curtis et al., J Econ Entomol 78:1425-1430 (1985)). Baited and control traps were placed at ca. 1.8 m height in randomized blocks with the intertrap distance of ca. 10 m. Capture data were transformed to log (x+0.5) and analyzed by ANOVA. […] Means of captures are untransformed, and error bars show one standard error (SE).

NOW males = assay: Wind tunnel bioassays of male NOW flight responses; assay type: in vivo, Amyelois transitella
Description: Flight responses of male NOW to different blends and doses of synthesized pheromone components were tested in the ARS wind tunnel. Males were 2-3 days old and were used during the last two hours of shotophase (dark cycle). The wind tunnel room was maintained at 23-26° C. with >35% relative humidity. NOW males were placed in individual aluminum-screen cages during their 1st or 2nd photophase and then held in an incubator until one hour prior to testing, when they were transferred from their dark incubator to the wind tunnel. […] After conditioning to ambient conditions in the wind tunnel for one hour, males were assayed individually to test compounds formulated on 1cm dia. filter paper disks. Information recorded included the number of males per trial that reached the pheromone source, the time to reach the pheromone source, and observations of the flight behavior (e.g., relatively straight flight; looping flight; veering out of the pheromone plume, etc.)
Subsequent wind tunnel tests were evaluated on quantitative as well as qualitative responses of NOW males to test formulations. All treatments were applied to 1 cm filter paper disks in at least 25 ul of hexane, to fully “wet” the paper surface, and at least 5 males were tested individually to each pheromone blend.

[3] = tested on: major pheromone-binding protein (AtraPBP); assay: Binding assays with recombinant olfactory proteins; parameters: species or system navel orangeworm, A. transitella; conditions: preliminary screening of ligands
Excerpt: Synthetic pheromone compositions can be conveniently tested in the assays described below. For example, the synthetic pheromone compositions of the present invention can be tested.to determine affinity for a pheromone-binding protein (AtraPBP) present in the navel orangeworm. Alternatively, the compositions can be tested for the ability to stimulate the olfactory receptor neurons (ORNs) in the insect's sensilla trichodea producing a response that indicates the presence or absence of a pheromone. In a typical embodiment, the compositions stimulate an electroantennogram response from an insect pest antenna, as described below.
Results. A comprehensive approach was taken in studying chemical communication in the navel orangeworm, A. transitella. Pheromone- and odorant-binding proteins were isolated, cloned, and expressed.

[4] = tested on: olfactory receptor neurons (ORN) in sensilla trichodea of male moth antennae; assay: Single sensillum recordings (SSR) from sensilla trichodea; parameters: species or system Amyelois transitella
Excerpt: Single sensillum recordings (SSR). Male moths were immobilized with dental wax on the recording stage of a single sensillum recording unit (Syntech, INR-02), the tip of the sensilla were cut (Kaissling, K. E. Single unit and electroantennogram recordings in insect olfactory organs, In: Spielman A. I., Brand J. G. (ed) Experimental Cell Biology of Taste and Olfaction: Current Techniques and Protocols, CRC Press, Boca Raton, pp.361-386 (1995)) and placed under a stereomicroscope (SZX12,Olympus, Tokyo, Japan). The indifferent (ground) electrode was a thin tungsten electrode inserted into the head. The recording glass electrode was slipped over the cut tip of the sensilla with a Piezo Manipulator (PM-10, World Precision Instruments, Sarasota, Fla.) while the signal was monitored with a Tektronix oscilloscope (TDS-2014). The pre-amplified signal was acquired with an acquisition system (IDAC-USB, Syntech) and SSR software (Autospike 2000, Syntech). The antennal preparation was continuously flushed with clean air at 0.5 m/s. Each stimulus was applied to a filter paper, dried at least 10 min, and placed within a glass cartridge (7 mm i.d.; 5 cm long). The cartridge opening was placed 1 cm in front of the antennae. The stimulus air was delivered by a stimulus controller (CD-02/E, Syntech).

navel orangeworm = assay: Field trap tests, UC Davis, navel orangeworm captures; assay type: in vivo, Amyelois transitella; conditions: 0.5 mg lure, 3-wk period
Description: as §1

## CC/C=C/C=C\CCCCCCCCCC=O [(Z,E)-1, Z,E-11,13-hexadecadienal]
[1]
  EAD activity of natural constituent: small EAD-active peaks

## CC/C=C\C/C=C\C/C=C\C/C=C\C/C=C\CCCCCCC [(Z,Z,Z,Z,Z)-3,6,9,12,15-tricosapentaene]
[1]; NOW gland extract screened by GC-EAD
  share of NOW antennal preparations with detectable response: about half
[1]
  EAD activity of natural constituent: much weaker response
[2]
  EAD response of male meal moth antennae: consistently elicited responses from the male antennae

## CC/C=C\C=C/CCCCCCCCCCOC(C)=O (single isomer, unassigned) [Compound 4, (Z,Z)-11,13-hexadecadien-1-yl acetate]
[1]
  EAD activity of natural constituent: EAD-active
Meal moth
  catches of meal moth in traps baited with virgin female navel orangeworm plus added compound: completely shut off

## CC/C=C\C=C/CCCCCCCCCC(=O)OCC (single isomer, unassigned) [Compound 3, ethyl (Z,Z)-11,13-hexadecadienoate]
[1]
  EAD activity of natural constituent: EAD-active
  EAD activity of synthetic or authentic compound: EAD active

## CC/C=C\C=C/CCCCCCCCCCOC(C)=O [(Z,Z)-11,13-hexadecadien-1-yl acetate]
[1]
  EAD activity of synthetic or authentic compound: same electrophysiological activity as the natural product
Meal moth; partial mixtures
  effect of removing the compound from the full mixture on meal moth captures: increased dramatically captures of male meal moth
Meal moth
  catches of meal moth in traps baited with virgin female navel orangeworm plus added compound: complete lack of captures

## CCCCCCCCCCCCCCCC(=O)OCC (single isomer, unassigned) [Compound 2, ethyl palmitate]
[1]
  EAD activity of natural constituent: EAD-active

## CC/C=C\C/C=C\C/C=C\C/C=C\C/C=C\CCCCCCC (single isomer, unassigned) [Compound 5, (Z,Z,Z,Z,Z)-3,6,9,12,15-tricosapentaene]
[1]
  EAD activity of natural constituent: EAD-active

## CC/C=C\C=C/CCCCCCCCCCO [Z11,Z13-16:OH, Z,Z-11,13-hexadecadien-1-ol]
NOW males; wind tunnel
  effect of adding the compound to the blend of Z11,Z13-16:Ald with tricosapentaene: further enhanced attraction

## CC/C=C\C=C/CCCCCCCCCC=O (single isomer, unassigned) [Compound 1, (Z,Z)-11,13-hexadecadienal]
[3]
  affinity to AtraPBP: apparent high affinity
[1]
  EAD activity of natural constituent: EAD-active
[1]; listed as (Z,Z)-1
  EAD activity of natural constituent: strongest EAD-active peak
[4]
  SSR response of olfactory receptor neurons: large spike amplitude cells (FIG. 1A) were activated
NOW males; synthesized standards and crude extract
  male NOW response in wind tunnel: no test males responded
Navel orangeworm
  captures of male navel orangeworm in baited traps: captured no moths

## CC/C=C\C/C=C\C/C=C\C/C=C\C/C=C\CCCCCCCCC (single isomer, unassigned) [Compound 6, (Z,Z,Z,Z,Z)-3,6,9,12,15-pentacosapentaene]
[1]
  EAD activity of natural constituent: EAD-active

## CC/C=C\C=C\CCCCCCCCCC=O [(E,Z)-1, E,Z-11,13-hexadecadienal]
[1]
  EAD activity of natural constituent: small EAD-active peaks

## CC/C=C/C=C/CCCCCCCCCC=O [(E,E)-1]
[4]
  SSR response of olfactory receptor neurons: activated mainly a small spike ORN, with small activation of a large spike cell

## CCCCCCCCCCCCCCCC(=O)OCC [ethyl palmitate]
[1]
  EAD activity of synthetic or authentic compound: EAD activity
